Patent publication US20040009243A1, “Cancer preventive composition comprising ginsenoside glycosides of red ginseng” (priority 2002, published 2004)
“Also recorded” adds a separate entry of the source. Where two headings read alike, the source gives them in different places.

Tests used:
[1] = system: lung adenoma induced by benzo(a)pyrene; assay: 9-weeks medium-term anticarcinogenicity test of ginsenosides (Experiment 1); assay type: in vivo, NIH(GP) mice; conditions: for incidence of lung adenoma on the average: BP 0.5 mg plus ginsenoside; for incidence of lung adenoma on the average / Incidence (lung adenoma), treatment alone without BP: sacrifice 9th week; for incidence of lung adenoma on the average / Incidence, number of mice with lung adenoma / Incidence, value in parentheses (percent of mice with lung adenoma) / Multiplicity (Mean ± S.D.): BP line = carcinogen alone; for Incidence, number of mice with lung adenoma / Incidence, value in parentheses (percent of mice with lung adenoma) / Multiplicity (Mean ± S.D.): BP 0.5 mg/head + ginsenoside 80 μg/ml; for Incidence (lung adenoma), treatment alone without BP: red ginseng extract 2 mg/ml, ginsenosides 80 μg/ml in drinking water, 6 weeks; for lung adenoma in groups treated singularly, without BP (in words): treatment alone, 9 weeks
Excerpt: 1) Experimental animal: In this experiment newborn non-inbred strain NIH(GP) mice were used. Each experimental animal was in a breeding chamber maintained at constant temperature and humidity and, after weaning, given a solid feed prepared according to the NIH-7 open formula. The experimental animals were allowed to freely take drinking water and diet.
2) Establishment of the test groups: The test groups were a total of 10 groups including the normal control group, the ginsenoside Rg3 treatment group, the ginsenoside Rg5 group, the ginsenoside Rh1 group, the ginsenoside Rh2 group, the BP 0.5 mg group, the BP plus ginsenoside Rg3 group, the BP plus ginsenoside Rg5 group, the BP plus ginsenoside Rh1 group, and the BP plus ginsenoside Rh2 group, wherein 25 to 30 newborn mouse, female and male respectively, were used in each group.
3) Chemical carcinogen: As the chemical carcinogen, benzo(a)pyrene (BP: Sigma Chemical Co.) was used. The given amount of BP was suspended in 1% aqueous gelatin solution and then injected subcutaneously in the subscapular region once in an amount of 0.02 cc (0.5 mg).
4) Administration of respective ginsenosides: Respective ginsenosides, i.e. ginsenoside Rg3, ginsenoside Rg5, ginsenoside Rh1 and ginsenoside Rh2 were suspended in drinking water to 80 μg/ml and daily administered from the 3rd week to 9 th week after birth, i.e. during the period of 6 weeks.
5) Monitoring and sacrifice of experimental animals: The appearance of mice was monitored every time at which the feed and drinking water were changed, beginning from weaning at the 3th week after birth. Mice were weighed at intervals of one week and sacrificed at the 9th week after birth and then subjected to autopsy.
6) Pathological investigation: Immediately after autopsy, lungs were exposed to observe the presence or absence of nodules of lung adenoma, and at the same time, to observe the presence or absence of any lesion in respective main organs by the naked eye. Then lungs were fixed in Tellyesniczky solution and the other main organs were fixed in 10% neutral formalin solution, cut and then examined with a microscope. After fixing of lungs, nodules of long adenoma were counted by the naked eye. Then lungs were cut as in case of other main organs, stained with hematoxylin-eosin and then investigated to find nodules of lung adenoma.
7) Statistical treatment: The comparisons of the calculated lung adenoma incidence in respective test groups were made using the Chi-square test and the comparisons of multiplicity were made using Student's t test to obtain P-value.

[2] = system: mouse pulmonary adenoma induced by benzo(a)pyrene; conditions: BP + ginseng of given age, BP line = carcinogen alone, cited from earlier work
male ICR mice = assay: acute toxicity test (Experiment 2); assay type: in vivo; conditions: for autopsy examination, macroscopic (in words) / dead animals (in words): 1000 mg/kg oral, once; for autopsy examination, macroscopic (in words): 14th day after administration; for dead animals (in words): observed for 14 days; for acute toxicity / toxicity (in words): mice, oral route, 1000 mg/kg
Protocol: 20 male ICR mice weighing 26-30 grams were used in each test group to conduct the acute toxicity test of ginsenosides Rg3, Rg5 and Rh2. Specifically, each of ginsenosides Rg3, Rg5 and Rh2 was prepared in 0.5% Tween 80 as the solvent to the concentration of 100 mg/ml and then orally administered to mice once in an amount of 0.2 ml per 20 grams of body weight. The control group was given only 0.5% Tween 80 solvent via oral route. […] Further, on 14th day after administration the animals were sacrificed and then autopsied to examine macroscopically the main organs.

SMILES	incidence of lung adenoma on the average [1]	Incidence, number of mice with lung adenoma ([1]; Sex F)	Incidence, value in parentheses (percent of mice with lung adenoma) ([1]; Sex F)	Multiplicity (Mean ± S.D.) ([1]; Sex F)	Incidence, number of mice with lung adenoma ([1]; Sex M + F)	Incidence, value in parentheses (percent of mice with lung adenoma) ([1]; Sex M + F)	Multiplicity (Mean ± S.D.) ([1]; Sex M + F)	Incidence, number of mice with lung adenoma ([1]; Sex M)	Incidence, value in parentheses (percent of mice with lung adenoma) ([1]; Sex M)	Multiplicity (Mean ± S.D.) ([1]; Sex M)	autopsy examination, macroscopic (in words) (male ICR mice)	dead animals (in words) (male ICR mice)	acute toxicity / toxicity (in words) (male ICR mice)	Incidence (lung adenoma), treatment alone without BP ([1]; Sex F)	Incidence (lung adenoma), treatment alone without BP ([1]; Sex M + F)	Incidence (lung adenoma), treatment alone without BP ([1]; Sex M)	lung adenoma in groups treated singularly, without BP (in words) [1]	further results
c1ccc2c(c1)cc1ccc3cccc4ccc2c1c34 [Benzo(a)pyrene (BP), benzo(a)pyrene, reference compound]	60%	16	64.0	1.80 ± 2.12	30	60.0	1.50 ± 1.82	14	56.0	1.20 ± 1.44								Incidence of lung adenoma ([2]; Fresh ginseng Extract series): 63.9; Incidence of lung adenoma ([2]; Fresh ginseng Powder series): 41.3; Incidence of lung adenoma ([2]; Red ginseng Extract series): 47.5; Incidence of lung adenoma ([2]; Red ginseng powder series): 48.6; Incidence of lung adenoma ([2]; White ginseng Powder series): 45.0; Incidence of lung adenoma ([2]; White ginseng extract series): 41.3
CC(C)=CCC[C@](C)(O)[C@H]1CC[C@]2(C)[C@@H]1[C@H](O)C[C@@H]1[C@@]3(C)CC[C@H](O[C@@H]4O[C@H](CO)[C@@H](O)[C@H](O)[C@H]4O[C@@H]4O[C@H](CO)[C@@H](O)[C@H](O)[C@H]4O)C(C)(C)[C@@H]3CC[C@]12C [Ginsenoside Rg3, ginsenoside Rg3]	46.7%	15	50.0	1.03 ± 1.27	28	46.7	0.85 ± 1.13	13	43.3	0.67 ± 0.96	no special pathological finding	no dead animal was observed	did not exhibit any acute toxicity; also recorded: have no toxicity	0	0	0	did never occur lung adenoma	
CC(C)=CC/C=C(\C)[C@H]1CC[C@]2(C)[C@@H]1[C@H](O)C[C@@H]1[C@@]3(C)CC[C@H](O[C@@H]4O[C@H](CO)[C@@H](O)[C@H](O)[C@H]4O[C@@H]4O[C@H](CO)[C@@H](O)[C@H](O)[C@H]4O)C(C)(C)[C@@H]3CC[C@]12C [Ginsenoside Rg5, ginsenoside Rg5]	45.0%	14	46.7	1.33 ± 2.89	27	45.0	1.08 ± 2.21	13	43.3	0.83 ± 1.21	no special pathological finding	no dead animal was observed	did not exhibit any acute toxicity; also recorded: have no toxicity	0	0	0	did never occur lung adenoma	
CC(C)=CCC[C@](C)(O)[C@H]1CC[C@]2(C)[C@@H]1[C@H](O)C[C@@H]1[C@@]3(C)CC[C@H](O)C(C)(C)[C@@H]3[C@@H](O[C@@H]3O[C@H](CO)[C@@H](O)[C@H](O)[C@H]3O)C[C@]12C [Ginsenoside Rh1, ginsenoside Rh1, reference compound]		16	53.3	1.49 ± 1.86	31	51.7	1.03 ± 1.27	15	50.0	1.20 ± 1.54							did never occur lung adenoma	
CC(C)=CCC[C@](C)(O)[C@H]1CC[C@]2(C)[C@@H]1[C@H](O)C[C@@H]1[C@@]3(C)CC[C@H](O[C@@H]4O[C@H](CO)[C@@H](O)[C@H](O)[C@H]4O)C(C)(C)[C@@H]3CC[C@]12C [Ginsenoside Rh2, ginsenoside Rh2]	48.3%	16	53.3	1.53 ± 1.93	29	48.3	1.15 ± 1.61	13	43.3	0.77 ± 1.14	no special pathological finding	no dead animal was observed	did not exhibit any acute toxicity; also recorded: have no toxicity	0	0	0	did never occur lung adenoma	
